Inhibition data for 7 compounds are collected here from patent US20230072683A1, “PYRIDO-PYRIMIDIN DERIVATIVES AND PHARMACEUTICAL COMPOSITION, FOR USE IN PREVENTING OR TREATING PI3 KINASE RELATED DISEASES, COMPRISING SAME AS ACTIVE INGREDIENT” (BORYUNG PHARMACEUTICAL CO., LTD, priority 2019, published 2023).

The target in assay [1] is DNA-PK(h) (Homo sapiens, UniProt P78527). In words: Evaluation of inhibitory activity against DNA-PK (HTRF kinase assay, GST-cMyc-p53 substrate). The note with it: for inhibition at 0.01 µM: compound concentration 0.01 μM, read-out: EXP_VALUE(% Inhibition) DNA-PK(h) 0.01 μM; for inhibition at 0.1 µM: compound concentration 0.1 μM, read-out: EXP_VALUE(% Inhibition) DNA-PK(h) 0.1 μM. Format: biochemical. The essentials:
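p53 Ser15 phosphorylation by human DNA-PK was measured by time-resolved FRET ratio (665/620 nm ×10000) using Eu-labelled anti-phospho-Ser15 and d2 anti-GST antibodies. Substrate GST-cMyc-p53 at 50 μM; Mg/ATP-initiated, 30 min at room temperature, EDTA stop.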
(In general: TR-FRET usually uses a lanthanide donor and a delayed reading to cut background.)

Assay [2] concerns the target PI3K-δ (PI3K(p1108/p857) (h)) (Homo sapiens, UniProt O00329). As to the kind of experiment: Evaluation of inhibitory activity against PI3K-δ (HTRF kinase assay). In kind it is biochemical. The conditions noted are these: for inhibition at 0.01 µM: compound concentration 0.01 μM, read-out: EXP_VALUE(% Inhibition) PI3K-δ 0.01 μM; for inhibition at 0.1 µM: compound concentration 0.1 μM, read-out: EXP_VALUE(% Inhibition) PI3K-δ 0.1 μM. The essentials:
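HTRF read-out (665/620 nm ratio ×10000) used Eu-labelled anti-GST, GST-tagged GRP1 PH domain and streptavidin-allophycocyanin after EDTA/PIP3 stop.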

Sequence of PI3K-δ (PI3K(p1108/p857) (h)) (O00329 whole entry, the tested form may be a part): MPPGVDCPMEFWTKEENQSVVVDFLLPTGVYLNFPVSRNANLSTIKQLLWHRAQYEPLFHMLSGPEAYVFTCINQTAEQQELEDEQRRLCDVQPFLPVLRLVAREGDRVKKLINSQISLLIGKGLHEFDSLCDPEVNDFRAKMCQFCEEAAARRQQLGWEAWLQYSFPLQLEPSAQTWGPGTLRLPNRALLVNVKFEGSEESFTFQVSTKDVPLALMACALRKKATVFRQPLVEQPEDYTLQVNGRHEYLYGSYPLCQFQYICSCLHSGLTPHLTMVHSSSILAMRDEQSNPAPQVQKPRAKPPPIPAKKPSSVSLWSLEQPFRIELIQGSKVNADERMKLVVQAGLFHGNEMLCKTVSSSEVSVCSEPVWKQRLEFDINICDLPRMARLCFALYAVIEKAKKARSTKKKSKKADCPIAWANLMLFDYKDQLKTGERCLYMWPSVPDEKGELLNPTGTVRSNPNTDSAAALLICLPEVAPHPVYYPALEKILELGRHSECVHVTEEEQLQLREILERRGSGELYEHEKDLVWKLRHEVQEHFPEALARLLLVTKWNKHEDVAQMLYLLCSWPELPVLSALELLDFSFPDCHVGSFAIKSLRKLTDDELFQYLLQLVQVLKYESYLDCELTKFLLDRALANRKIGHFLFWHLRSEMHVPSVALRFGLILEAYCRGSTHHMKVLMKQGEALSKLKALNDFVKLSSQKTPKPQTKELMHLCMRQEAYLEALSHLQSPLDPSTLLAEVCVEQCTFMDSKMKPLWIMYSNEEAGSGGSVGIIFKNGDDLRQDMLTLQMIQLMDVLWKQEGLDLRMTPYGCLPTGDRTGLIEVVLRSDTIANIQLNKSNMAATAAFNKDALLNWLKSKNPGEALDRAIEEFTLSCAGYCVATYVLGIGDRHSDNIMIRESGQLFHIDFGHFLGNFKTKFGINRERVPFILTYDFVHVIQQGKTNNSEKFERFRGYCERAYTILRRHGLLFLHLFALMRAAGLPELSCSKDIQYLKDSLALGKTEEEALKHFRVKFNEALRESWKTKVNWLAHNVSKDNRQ
Sequence of PI3K-δ (PI3K(p1108/p857) (h)) (P27986 whole entry partner, the tested form may be a part): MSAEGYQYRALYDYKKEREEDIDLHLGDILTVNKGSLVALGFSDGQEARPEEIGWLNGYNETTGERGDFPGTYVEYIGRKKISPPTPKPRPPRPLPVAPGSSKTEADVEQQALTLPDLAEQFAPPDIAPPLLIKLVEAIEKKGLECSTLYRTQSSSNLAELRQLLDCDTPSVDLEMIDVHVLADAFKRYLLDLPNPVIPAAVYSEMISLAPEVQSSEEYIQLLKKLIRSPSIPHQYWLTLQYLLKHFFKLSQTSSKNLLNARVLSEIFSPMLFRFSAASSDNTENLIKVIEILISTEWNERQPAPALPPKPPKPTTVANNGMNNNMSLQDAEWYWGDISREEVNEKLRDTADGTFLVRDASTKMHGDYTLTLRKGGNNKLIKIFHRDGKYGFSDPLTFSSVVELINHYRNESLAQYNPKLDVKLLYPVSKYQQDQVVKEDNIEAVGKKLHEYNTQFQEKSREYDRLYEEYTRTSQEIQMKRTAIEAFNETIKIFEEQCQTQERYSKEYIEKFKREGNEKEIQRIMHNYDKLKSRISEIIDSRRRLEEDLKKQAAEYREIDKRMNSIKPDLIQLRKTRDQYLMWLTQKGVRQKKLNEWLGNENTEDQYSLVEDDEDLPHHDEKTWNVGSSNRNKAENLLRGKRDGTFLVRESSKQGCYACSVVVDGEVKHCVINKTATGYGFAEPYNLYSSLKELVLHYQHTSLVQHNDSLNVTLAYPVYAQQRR

A word on the inhibition: it is the change of the read-out against control, counted positive when it falls. Regarding `C[C@H](Nc1ncnc2[nH]ccc(=O)c12)c1c(Cl)c2cccc(-c3cccc(F)c3)c2c(=O)n1-c1ccccc1` [Example 123, (S)-4-((1-(4-chloro-8-(3-fluorophenyl)-1-oxo-2-phenyl-1,2-dihydroisoquinolin-3-yl)ethyl)amino)pyrido[2,3-d]pyrimidin-5(8H)-one], in assay [1], the inhibition at 0.01 µM stood at 58% and the inhibition at 0.1 µM came out at 93%. In assay [2], the inhibition at 0.01 µM was found to be 66% and the inhibition at 0.1 µM was determined as 94%.
Taken in the same sequence, the figures for `C[C@H](Nc1ncnc2[nH]ccc(=O)c12)c1c(Cl)c2cccc(-c3cc(F)cc(F)c3)c2c(=O)n1-c1ccccc1` [Example 124, (S)-4-((1-(4-chloro-8-(3,5-difluorophenyl)-1-oxo-2-phenyl-1,2-dihydroisoquinolin-3-yl)ethyl)amino)pyrido[2,3-d]pyrimidin-5(8H)-one] were 44%, 86%, 83% and 99%.
For `C[C@H](Nc1ncnc2[nH]ccc(=O)c12)c1c(Cl)c2cccc(-c3ccc4[nH]cnc4c3)c2c(=O)n1-c1ccccc1` [Example 125, (S)-4-((1-(8-(1H-benzo[d]imidazol-5-yl)-4-chloro-1-oxo-2-phenyl-1,2-dihydroisoquinolin-3-yl)ethyl)amino)pyrido[2,3-d]pyrimidin-5(8H)-one], the inhibition at 0.01 µM in assay [1] is 79%; in assay [2], 68%. The inhibition at 0.1 µM in assay [1] amounted to 97%; in assay [2], 95%.
Taken in the same sequence, the figures for `Cc1cc(-c2cccc3c(Cl)c([C@H](C)Nc4ncnc5[nH]ccc(=O)c45)n(-c4ccccc4)c(=O)c23)cc(C)c1O` [Example 126, (S)-4-((1-(4-chloro-8-(4-hydroxy-3,5-dimethylphenyl)-1-oxo-2-phenyl-1,2-dihydroisoquinolin-3-yl)ethyl)amino)pyrido[2,3-d]pyrimidin-5(8H)-one] were 70%, 74%, 96% and 94%.
Taken in the same sequence, the figures for `Cc1ccc(F)cc1-c1cccc2c(Cl)c([C@H](C)Nc3ncnc4[nH]ccc(=O)c34)n(-c3ccccc3)c(=O)c12` [Example 127, (S)-4-((1-(4-chloro-8-(5-fluoro-2-methylphenyl)-1-oxo-2-phenyl-1,2-dihydroisoquinolin-3-yl)ethyl)amino)pyrido[2,3-d]pyrimidin-5(8H)-one] were 38%, 89%, 81% and 92%.
Taken in the same sequence, the figures for `Cc1cc(-c2cccc3c(Cl)c([C@H](C)Nc4ncnc5[nH]ccc(=O)c45)n(-c4ccccc4)c(=O)c23)ccc1F` [Example 128, (S)-4-((1-(4-chloro-8-(4-fluoro-3-methylphenyl)-1-oxo-2-phenyl-1,2-dihydroisoquinolin-3-yl)ethyl)amino)pyrido[2,3-d]pyrimidin-5(8H)-one] were 59%, 101%, 97% and 105%.
For `C[C@H](Nc1ncnc2[nH]ccc(=O)c12)c1c(Cl)c2cccc(-c3cccc(F)c3F)c2c(=O)n1-c1ccccc1` [Example 129, (S)-4-((1-(4-chloro-8-(2,3-difluorophenyl)-1-oxo-2-phenyl-1,2-dihydroisoquinolin-3-yl)ethyl)amino)pyrido[2,3-d]pyrimidin-5(8H)-one], in assay [1], the inhibition at 0.01 µM came to 56% and the inhibition at 0.1 µM came out at 91%. In addition, in assay [2], the inhibition at 0.01 µM turned out to be 75% and the inhibition at 0.1 µM was determined as 67%.
